# According to ChEMBL document CHEMBL5696441 (Nat Chem Biol, 2011):
# Key:
# [1] = molecular target: Cyclin-dependent kinase 9 (Homo sapiens) (UniProt P50750); assay: Inhibition of CDK9 (unknown origin) assessed as remaining activity at 1 uM by Kinome scan method relative to control
# [2] = molecular target: Death-associated protein kinase 1 (Homo sapiens) (UniProt P53355); assay: Inhibition of DAPK1 (unknown origin) assessed as remaining activity at 1 uM by Kinome scan method relative to control
# [3] = molecular target: T1, Myotonin-protein kinase (Homo sapiens) (UniProt Q09013); assay: Inhibition of DMPK (unknown origin) assessed as remaining activity at 1 uM by Kinome scan method relative to control
# T1 sequence (whole entry): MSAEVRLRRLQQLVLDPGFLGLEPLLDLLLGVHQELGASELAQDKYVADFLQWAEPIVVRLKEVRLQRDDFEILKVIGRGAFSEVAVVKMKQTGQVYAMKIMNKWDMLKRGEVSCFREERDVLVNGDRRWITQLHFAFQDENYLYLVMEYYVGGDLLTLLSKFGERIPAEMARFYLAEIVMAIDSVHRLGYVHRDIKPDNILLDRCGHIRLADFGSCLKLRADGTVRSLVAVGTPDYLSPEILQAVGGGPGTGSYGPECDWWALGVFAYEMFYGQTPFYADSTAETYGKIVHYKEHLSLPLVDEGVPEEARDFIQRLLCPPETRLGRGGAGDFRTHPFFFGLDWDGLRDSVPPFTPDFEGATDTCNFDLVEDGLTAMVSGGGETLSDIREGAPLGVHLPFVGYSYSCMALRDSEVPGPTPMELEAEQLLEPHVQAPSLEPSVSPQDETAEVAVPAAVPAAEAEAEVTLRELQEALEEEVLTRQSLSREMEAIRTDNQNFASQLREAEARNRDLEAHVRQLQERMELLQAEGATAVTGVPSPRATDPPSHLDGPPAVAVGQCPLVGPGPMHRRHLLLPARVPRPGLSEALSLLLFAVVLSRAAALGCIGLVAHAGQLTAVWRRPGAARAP
# [4] = molecular target: Ephrin type-B receptor 6 (Homo sapiens) (UniProt O15197); assay: Inhibition of EPHB6 (unknown origin) assessed as remaining activity at 1 uM by Kinome scan method relative to control
# [5] = molecular target: Vascular endothelial growth factor receptor 1 (Homo sapiens) (UniProt P17948); assay: Inhibition of FLT1 (unknown origin) assessed as remaining activity at 1 uM by Kinome scan method relative to control
# [6] = molecular target: Insulin receptor-related protein (Homo sapiens) (UniProt P14616); assay: Inhibition of INSRR (unknown origin) assessed as remaining activity at 1 uM by Kinome scan method relative to control
# [7] = molecular target: Serine/threonine-protein kinase LATS1 (Homo sapiens) (UniProt O95835); assay: Inhibition of LATS1 (unknown origin) assessed as remaining activity at 1 uM by Kinome scan method relative to control
# [8] = molecular target: Mitogen-activated protein kinase kinase kinase 15 (Homo sapiens) (UniProt Q6ZN16); assay: Inhibition of MAP3K15 (unknown origin) assessed as remaining activity at 1 uM by Kinome scan method relative to control
# [9] = molecular target: T2, Serine/threonine-protein kinase Nek1 (Homo sapiens) (UniProt Q96PY6); assay: Inhibition of NEK1 (unknown origin) assessed as remaining activity at 1 uM by Kinome scan method relative to control
# T2 sequence (whole entry): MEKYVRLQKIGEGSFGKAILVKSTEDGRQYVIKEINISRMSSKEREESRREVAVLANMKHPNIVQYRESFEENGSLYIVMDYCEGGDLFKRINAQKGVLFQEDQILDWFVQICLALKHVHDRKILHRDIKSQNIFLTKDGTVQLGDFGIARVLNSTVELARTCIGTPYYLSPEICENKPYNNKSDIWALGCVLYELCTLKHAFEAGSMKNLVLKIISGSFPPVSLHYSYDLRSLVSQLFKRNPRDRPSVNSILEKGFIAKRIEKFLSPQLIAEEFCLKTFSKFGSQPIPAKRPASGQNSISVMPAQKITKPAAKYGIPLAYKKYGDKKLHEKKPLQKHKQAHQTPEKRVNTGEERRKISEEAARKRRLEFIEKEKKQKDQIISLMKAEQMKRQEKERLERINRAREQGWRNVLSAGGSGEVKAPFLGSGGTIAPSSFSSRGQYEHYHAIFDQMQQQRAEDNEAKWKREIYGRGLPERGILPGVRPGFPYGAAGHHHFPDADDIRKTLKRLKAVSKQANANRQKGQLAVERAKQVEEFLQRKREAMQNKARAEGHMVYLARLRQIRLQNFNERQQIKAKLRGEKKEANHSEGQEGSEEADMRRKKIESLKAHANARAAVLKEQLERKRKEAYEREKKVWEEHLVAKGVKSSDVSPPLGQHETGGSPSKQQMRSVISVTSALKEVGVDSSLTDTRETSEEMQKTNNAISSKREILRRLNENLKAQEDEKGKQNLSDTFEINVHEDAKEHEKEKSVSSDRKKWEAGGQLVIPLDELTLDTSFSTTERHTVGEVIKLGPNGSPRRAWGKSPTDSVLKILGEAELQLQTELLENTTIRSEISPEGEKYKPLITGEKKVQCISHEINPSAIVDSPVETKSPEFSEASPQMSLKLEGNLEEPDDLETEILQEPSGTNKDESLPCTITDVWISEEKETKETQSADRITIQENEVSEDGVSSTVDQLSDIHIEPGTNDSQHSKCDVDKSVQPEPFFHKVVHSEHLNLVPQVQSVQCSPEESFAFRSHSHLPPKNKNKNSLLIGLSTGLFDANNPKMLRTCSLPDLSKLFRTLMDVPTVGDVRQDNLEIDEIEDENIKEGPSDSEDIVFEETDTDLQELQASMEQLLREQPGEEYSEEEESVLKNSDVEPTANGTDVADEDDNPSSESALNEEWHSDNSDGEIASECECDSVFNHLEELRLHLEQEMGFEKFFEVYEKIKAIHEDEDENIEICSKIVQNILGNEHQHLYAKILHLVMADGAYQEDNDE
# [10] = molecular target: RAF proto-oncogene serine/threonine-protein kinase (Homo sapiens) (UniProt P04049); assay: Inhibition of RAF1 (unknown origin) assessed as remaining activity at 1 uM by Kinome scan method relative to control
# [11] = molecular target: Serine/threonine-protein kinase SIK2 (Homo sapiens) (UniProt Q9H0K1); assay: Inhibition of SIK2 (unknown origin) assessed as remaining activity at 1 uM by Kinome scan method relative to control
# [12] = molecular target: Serine/threonine-protein kinase tousled-like 2 (Homo sapiens) (UniProt Q86UE8); assay: Inhibition of TLK2 (unknown origin) assessed as remaining activity at 1 uM by Kinome scan method relative to control
# Serine/threonine-protein kinase tousled-like 2 (Homo sapiens), sequence (Q86UE8 whole entry, looked up): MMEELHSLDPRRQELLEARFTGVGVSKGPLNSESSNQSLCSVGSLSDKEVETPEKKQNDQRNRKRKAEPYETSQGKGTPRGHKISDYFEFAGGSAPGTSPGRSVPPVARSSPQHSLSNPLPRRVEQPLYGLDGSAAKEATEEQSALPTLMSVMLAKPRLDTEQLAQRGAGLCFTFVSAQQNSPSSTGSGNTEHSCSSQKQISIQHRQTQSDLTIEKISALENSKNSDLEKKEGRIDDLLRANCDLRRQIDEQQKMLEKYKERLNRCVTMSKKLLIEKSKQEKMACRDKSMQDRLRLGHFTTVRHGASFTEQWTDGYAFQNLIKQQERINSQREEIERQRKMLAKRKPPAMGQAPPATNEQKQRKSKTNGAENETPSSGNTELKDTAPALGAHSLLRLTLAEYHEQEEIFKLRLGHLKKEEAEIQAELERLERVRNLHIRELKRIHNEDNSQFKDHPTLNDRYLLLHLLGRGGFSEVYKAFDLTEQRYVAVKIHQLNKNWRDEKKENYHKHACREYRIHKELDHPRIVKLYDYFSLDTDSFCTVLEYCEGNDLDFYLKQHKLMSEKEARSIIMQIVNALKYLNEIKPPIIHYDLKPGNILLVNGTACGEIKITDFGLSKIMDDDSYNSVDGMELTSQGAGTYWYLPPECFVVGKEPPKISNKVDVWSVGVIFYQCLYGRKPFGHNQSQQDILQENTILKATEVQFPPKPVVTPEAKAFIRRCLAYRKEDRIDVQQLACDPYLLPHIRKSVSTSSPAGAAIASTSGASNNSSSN
# Mitogen-activated protein kinase kinase kinase 15 (Homo sapiens), sequence (Q6ZN16 whole entry): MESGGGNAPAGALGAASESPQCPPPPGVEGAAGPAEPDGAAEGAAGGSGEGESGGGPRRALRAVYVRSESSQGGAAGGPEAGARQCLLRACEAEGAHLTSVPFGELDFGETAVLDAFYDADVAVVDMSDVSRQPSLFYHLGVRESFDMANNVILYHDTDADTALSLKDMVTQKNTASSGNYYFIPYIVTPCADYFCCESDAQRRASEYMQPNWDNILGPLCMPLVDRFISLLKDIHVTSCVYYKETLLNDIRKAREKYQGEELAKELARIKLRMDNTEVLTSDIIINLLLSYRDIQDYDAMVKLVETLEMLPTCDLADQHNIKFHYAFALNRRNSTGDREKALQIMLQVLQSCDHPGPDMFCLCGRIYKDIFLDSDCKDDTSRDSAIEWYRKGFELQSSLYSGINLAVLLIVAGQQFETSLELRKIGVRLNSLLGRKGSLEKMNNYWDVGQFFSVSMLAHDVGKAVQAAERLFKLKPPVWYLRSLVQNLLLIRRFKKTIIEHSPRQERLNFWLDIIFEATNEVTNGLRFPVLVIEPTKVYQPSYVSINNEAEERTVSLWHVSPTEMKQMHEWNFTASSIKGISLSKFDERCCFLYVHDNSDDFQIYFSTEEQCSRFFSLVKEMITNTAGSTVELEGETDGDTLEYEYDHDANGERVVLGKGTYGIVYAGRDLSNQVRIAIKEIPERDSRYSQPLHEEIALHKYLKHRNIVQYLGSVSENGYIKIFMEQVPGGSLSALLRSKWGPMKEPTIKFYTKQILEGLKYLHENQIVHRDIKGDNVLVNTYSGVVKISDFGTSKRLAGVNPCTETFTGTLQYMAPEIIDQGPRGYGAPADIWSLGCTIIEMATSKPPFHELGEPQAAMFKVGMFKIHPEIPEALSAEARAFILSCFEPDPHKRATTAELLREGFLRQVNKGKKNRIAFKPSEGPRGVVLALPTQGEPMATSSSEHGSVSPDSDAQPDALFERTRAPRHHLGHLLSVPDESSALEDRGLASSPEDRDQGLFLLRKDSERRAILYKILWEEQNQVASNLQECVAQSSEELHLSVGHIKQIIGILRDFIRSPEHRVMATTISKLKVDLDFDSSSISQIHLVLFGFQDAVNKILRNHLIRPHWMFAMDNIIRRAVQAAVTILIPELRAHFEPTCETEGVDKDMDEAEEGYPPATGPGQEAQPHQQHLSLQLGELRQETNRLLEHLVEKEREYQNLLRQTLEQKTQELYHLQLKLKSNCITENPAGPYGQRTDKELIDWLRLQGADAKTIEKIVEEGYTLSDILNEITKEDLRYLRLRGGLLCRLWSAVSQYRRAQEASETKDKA
# Ephrin type-B receptor 6 (Homo sapiens), sequence (O15197 whole entry): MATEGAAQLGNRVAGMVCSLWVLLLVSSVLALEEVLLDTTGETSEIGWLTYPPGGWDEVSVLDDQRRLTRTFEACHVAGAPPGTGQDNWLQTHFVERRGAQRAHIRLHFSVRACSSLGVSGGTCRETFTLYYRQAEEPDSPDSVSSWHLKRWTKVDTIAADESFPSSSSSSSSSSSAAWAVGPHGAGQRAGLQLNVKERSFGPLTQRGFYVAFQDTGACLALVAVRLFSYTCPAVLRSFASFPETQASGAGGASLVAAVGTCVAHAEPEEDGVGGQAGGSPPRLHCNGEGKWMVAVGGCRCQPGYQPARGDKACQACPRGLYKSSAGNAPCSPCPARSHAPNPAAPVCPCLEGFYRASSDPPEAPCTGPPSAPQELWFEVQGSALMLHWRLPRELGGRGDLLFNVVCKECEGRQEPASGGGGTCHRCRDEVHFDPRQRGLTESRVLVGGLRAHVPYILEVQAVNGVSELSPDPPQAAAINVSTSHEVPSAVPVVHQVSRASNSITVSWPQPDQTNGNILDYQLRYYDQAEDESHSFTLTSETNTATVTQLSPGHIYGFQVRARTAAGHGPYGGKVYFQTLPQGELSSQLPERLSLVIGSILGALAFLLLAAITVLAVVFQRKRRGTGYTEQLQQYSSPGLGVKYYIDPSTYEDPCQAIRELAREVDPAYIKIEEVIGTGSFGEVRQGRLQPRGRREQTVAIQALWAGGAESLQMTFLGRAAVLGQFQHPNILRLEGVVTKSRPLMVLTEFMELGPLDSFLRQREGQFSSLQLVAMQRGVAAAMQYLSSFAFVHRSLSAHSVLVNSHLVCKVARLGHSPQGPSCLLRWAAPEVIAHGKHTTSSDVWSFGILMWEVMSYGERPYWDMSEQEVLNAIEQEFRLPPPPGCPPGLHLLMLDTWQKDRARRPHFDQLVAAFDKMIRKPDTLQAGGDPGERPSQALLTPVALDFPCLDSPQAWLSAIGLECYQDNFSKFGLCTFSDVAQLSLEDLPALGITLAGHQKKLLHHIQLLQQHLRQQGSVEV
# Death-associated protein kinase 1 (Homo sapiens), sequence (P53355 whole entry, looked up): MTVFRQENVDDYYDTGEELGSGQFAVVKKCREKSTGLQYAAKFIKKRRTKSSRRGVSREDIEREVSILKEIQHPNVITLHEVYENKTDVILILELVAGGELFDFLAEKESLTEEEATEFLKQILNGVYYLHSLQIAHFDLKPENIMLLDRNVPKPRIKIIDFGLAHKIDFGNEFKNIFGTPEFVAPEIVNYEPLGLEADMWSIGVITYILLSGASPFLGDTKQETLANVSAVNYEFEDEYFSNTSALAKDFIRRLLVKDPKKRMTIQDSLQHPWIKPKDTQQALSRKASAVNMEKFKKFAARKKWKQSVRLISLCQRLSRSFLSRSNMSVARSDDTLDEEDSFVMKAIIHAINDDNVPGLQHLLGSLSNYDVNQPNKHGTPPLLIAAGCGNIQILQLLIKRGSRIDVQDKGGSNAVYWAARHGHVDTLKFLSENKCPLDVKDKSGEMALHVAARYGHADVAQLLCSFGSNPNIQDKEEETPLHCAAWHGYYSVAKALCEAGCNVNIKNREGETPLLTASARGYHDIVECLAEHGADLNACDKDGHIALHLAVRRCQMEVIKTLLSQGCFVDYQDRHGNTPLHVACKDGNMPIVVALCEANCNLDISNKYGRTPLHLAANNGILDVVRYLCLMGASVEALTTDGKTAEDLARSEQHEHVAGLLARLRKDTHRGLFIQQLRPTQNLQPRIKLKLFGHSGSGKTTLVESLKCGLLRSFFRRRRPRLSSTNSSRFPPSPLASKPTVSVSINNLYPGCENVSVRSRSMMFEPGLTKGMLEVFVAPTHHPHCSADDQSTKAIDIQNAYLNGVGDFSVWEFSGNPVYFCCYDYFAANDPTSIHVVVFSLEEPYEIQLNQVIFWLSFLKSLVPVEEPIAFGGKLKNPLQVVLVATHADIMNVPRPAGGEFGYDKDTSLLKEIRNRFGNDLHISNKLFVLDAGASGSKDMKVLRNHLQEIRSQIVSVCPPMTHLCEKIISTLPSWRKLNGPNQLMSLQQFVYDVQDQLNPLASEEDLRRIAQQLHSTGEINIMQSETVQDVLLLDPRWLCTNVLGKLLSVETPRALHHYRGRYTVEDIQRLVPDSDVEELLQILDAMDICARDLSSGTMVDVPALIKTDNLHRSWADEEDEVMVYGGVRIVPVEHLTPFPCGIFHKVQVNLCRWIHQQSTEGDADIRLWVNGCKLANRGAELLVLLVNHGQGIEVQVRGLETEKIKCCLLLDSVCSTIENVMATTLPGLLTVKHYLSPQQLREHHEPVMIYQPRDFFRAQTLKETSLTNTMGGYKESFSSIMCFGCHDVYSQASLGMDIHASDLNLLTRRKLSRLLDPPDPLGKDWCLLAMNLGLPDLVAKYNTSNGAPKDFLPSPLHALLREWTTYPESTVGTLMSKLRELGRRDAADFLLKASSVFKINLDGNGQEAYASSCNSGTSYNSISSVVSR
# Cyclin-dependent kinase 9 (Homo sapiens), sequence (P50750 whole entry): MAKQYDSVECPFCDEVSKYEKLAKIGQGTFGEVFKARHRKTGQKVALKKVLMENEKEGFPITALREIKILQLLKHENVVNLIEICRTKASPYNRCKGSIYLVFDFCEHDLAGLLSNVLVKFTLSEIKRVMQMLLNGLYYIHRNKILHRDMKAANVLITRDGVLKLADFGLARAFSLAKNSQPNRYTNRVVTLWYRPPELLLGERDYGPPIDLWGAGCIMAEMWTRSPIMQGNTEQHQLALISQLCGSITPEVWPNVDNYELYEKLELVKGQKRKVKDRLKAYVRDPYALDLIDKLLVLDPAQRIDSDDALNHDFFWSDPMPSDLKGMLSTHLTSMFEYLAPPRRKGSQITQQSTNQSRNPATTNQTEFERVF
Structure (SMILES),Activity [1] [%],Activity [2] [%],Activity [3] [%],Activity [4] [%],Activity [5] [%],Activity [6] [%],Activity [7] [%],Activity [8] [%],Activity [9] [%],Activity [10] [%],Activity [11] [%],Activity [12] [%]
Nc1ccccc1Nc1ccc2c(c1)CCc1ccccc1C2=O,93,95,93,99,85,88,96,94,90,93,83,85
O=C1c2ccc(Nc3ccc(F)cc3F)cc2CCc2ccc(OC[C@H](O)CO)cc21 [Skepinone-L],100,100,76,91,82,100,90,80,91,100,93,82
